Assays:
[1] = test system: human subjects; experiment: Gastrointestinal tolerance study of iced cupcakes (Test Protocol 1; randomized, double-blind, crossover); type: in vivo; settings: after 24 hours; compared to SWEETENER 1
From the text: In many embodiments, the sweetener compositions of the invention have improved gastrointestinal tolerance in humans. For example, the sweetener compositions of the invention have improved gastrointestinal tolerance as compared to maltitol. Gastrointestinal tolerance can be measured, for example, using a randomized, double blind, crossover, repeated measure design protocol, such described in Test Protocol 1 in the Example section of the application. In a representative test, a test food comprising a sweetener to be tested is consumed by human subjects, and the subjects are required to complete a gastrointestinal survey at various intervals, prior to and after, consuming the test food. For example, the human subject may complete the survey at 0 hours (i.e., just prior to consuming the test food), 2 hours, 6 hours, 12 hours, and 24 hours after consuming the test food. The food is then rated at the various time periods for gastrointestinal tolerance as evidenced by gastrointestinal effects such as gastrointestinal rumbling, abdominal cramping, gas/bloating, excessive flatulence, loose stools, and diarrhea. […]
The study used a randomized, double-blind, crossover, repeated measure design. […] Diarrhea was recorded as a yes/no response. […]

[2] = in vivo; cited from earlier work

Compound | abdominal cramping [1] | fraction absorbed in the small intestine and excreted unchanged in the urine [2]
OC[C@@H](O)[C@@H](O[C@H]1O[C@H](CO)[C@@H](O)[C@H](O)[C@H]1O)[C@H](O)[C@@H](O)CO [COMP. SWEETENER A, Maltitol] | Significantly milder | 
OC[C@@H](O)[C@@H](O)CO [Erythritol] |  | about 90%

— US20100112174A1, “LOW CALORIE SWEETENER COMPOSITIONS” (CARGILL, INCORPORATED, priority 2006, published 2010)
